Experimental data taken from ChEMBL document CHEMBL1151396, “Synthesis of naphthoquinoles as potential antitumor agents related to jacaranone” (1982).
In brackets after ≈: the same amount, converted by molar mass.

The molecules below were run on P388 (assay: In vivo cytotoxicity against mouse P388 cells at 2 mg/kg relative to control). Conditions: not given.
Type: functional

With `COC(=O)CC1(O)C=CC(=O)C=C1` [JACARANONE] the T/C was 165%.

The molecules below were run on KB (assay: Cytotoxicity against human KB cells). Conditions: read-out: ED50 (the source's name).
Type: functional

Compared with `CCOC(=O)CC1(O)C=CC(=O)C=C1`, `COC(=O)CC1(O)C=CC(=O)C=C1` [JACARANONE] is 1.6-fold lower in EC50: 3.3 µg/mL (≈ 16.8 µM) for the first, 2.1 µg/mL (≈ 11.5 µM) for the second.

First: COC(=O)CC1(O)C=CC(=O)c2ccccc21 (stereo unspecified)
Second: COC(=O)CC1(O)C=C(C)C(=O)c2ccccc21 (stereo unspecified)
The EC50 of the first is 5-fold lower: 20 µg/mL (≈ 86.1 µM) for the first, 100 µg/mL (≈ 406 µM) for the second.

`COC(=O)CC1(O)C=C(OC)C(=O)c2ccccc21` (stereo unspecified) gave an EC50 of 25 µg/mL (≈ 95.3 µM).
